What was measured:
[1] = molecular target: T1, Activated CDC42 kinase 1 (Homo sapiens, UniProt Q07912); test: Inhibition of ACK1 (unknown origin)
Target sequence in this assay (Q07912 whole entry): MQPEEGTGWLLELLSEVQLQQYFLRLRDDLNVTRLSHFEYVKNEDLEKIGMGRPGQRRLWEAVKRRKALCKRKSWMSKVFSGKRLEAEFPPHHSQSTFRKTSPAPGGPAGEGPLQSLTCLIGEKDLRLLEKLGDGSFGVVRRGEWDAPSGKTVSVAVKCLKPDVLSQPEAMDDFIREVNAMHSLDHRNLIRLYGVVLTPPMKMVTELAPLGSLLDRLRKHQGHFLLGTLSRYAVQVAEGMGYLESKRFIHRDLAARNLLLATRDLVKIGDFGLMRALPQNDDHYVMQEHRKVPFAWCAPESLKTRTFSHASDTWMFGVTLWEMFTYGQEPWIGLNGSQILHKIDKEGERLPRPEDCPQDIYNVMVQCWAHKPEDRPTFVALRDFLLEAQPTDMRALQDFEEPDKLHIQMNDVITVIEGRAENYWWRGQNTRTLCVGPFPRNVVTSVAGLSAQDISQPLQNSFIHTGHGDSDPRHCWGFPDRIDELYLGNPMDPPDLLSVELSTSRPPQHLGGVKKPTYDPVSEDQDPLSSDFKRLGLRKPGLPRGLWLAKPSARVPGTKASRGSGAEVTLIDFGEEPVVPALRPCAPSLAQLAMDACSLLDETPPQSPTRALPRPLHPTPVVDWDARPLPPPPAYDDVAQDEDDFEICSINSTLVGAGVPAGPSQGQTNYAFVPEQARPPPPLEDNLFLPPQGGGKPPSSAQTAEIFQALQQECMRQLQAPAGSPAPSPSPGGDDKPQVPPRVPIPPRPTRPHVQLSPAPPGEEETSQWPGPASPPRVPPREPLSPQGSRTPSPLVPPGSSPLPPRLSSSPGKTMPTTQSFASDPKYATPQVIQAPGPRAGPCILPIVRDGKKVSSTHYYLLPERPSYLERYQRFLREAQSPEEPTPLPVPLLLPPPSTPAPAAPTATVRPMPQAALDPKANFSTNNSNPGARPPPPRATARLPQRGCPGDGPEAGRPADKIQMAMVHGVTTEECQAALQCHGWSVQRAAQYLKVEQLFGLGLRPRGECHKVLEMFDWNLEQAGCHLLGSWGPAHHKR

[2] = molecular target: T1, Activated CDC42 kinase 1; test: Inhibition of ACK1 (unknown origin) at 10 uM relative to control
Target sequence in this assay (Q07912 whole entry, looked up): as the sequence (Q07912 whole entry) above

[3] = tested on: MDA-MB-157; test: Antiproliferative activity against human MDA-MB-157 cells treated for 96 hrs by trypan blue exclusion assay; format: functional, cell-based; settings: MDA-MB-157, 96 h
[4] = Inhibition of ACK1 R806Q mutant in mouse BaF3 cells; format: cell-based
[5] = Inhibition of ACK1 D163E mutant in mouse BaF3 cells; format: cell-based

| SMILES | IC50 [1] | inhibition [2] | IC50 [4] | IC50 [5] | also measured |
| --- | --- | --- | --- | --- | --- |
| C=CC(=O)Nc1cc(Nc2nccc(-c3cn(C)c4ccccc34)n2)c(OC)cc1N(C)CCN(C)C [OSIMERTINIB] | 71 nM |  |  |  |  |
| Cc1cc(Nc2ncc(Cl)c(Nc3ccccc3S(=O)(=O)C(C)C)n2)c(OC(C)C)cc1C1CCNCC1 [CERITINIB] | 33.6 nM |  |  |  |  |
| COc1cc2ncnc(Nc3ccc(F)c(Cl)c3)c2cc1OCCCN1CCOCC1 |  | 77% |  |  |  |
| CN1CCN(c2ccc(Nc3ncc(Cl)c(NC[C@H]4CCCO4)n3)cc2)CC1 |  |  |  |  | IC50 [3]: 480 nM |
| CN1c2ccccc2C(=O)Nc2cnc(Nc3ccc(N4CCC(O)CC4)cc3)nc21 |  |  | 77 nM | 16 nM |  |
| CNc1cc2c(Nc3cccc(Br)c3)ncnc2cn1 | 200 nM |  |  |  |  |
| CCN(CC)CCNC(=O)c1c(C)[nH]c(/C=C2\C(=O)Nc3ccc(F)cc32)c1C |  | 33% |  |  |  |
| Cc1nc(Nc2ncc(C(=O)Nc3c(C)cccc3Cl)s2)cc(N2CCN(CCO)CC2)n1 [DASATINIB] |  |  | 1.3 nM | 0.1 nM |  |
| CN1CC[C@H](c2c(O)cc(O)c3c(=O)cc(-c4ccccc4Cl)oc23)[C@H](O)C1 [ALVOCIDIB] | < 20000 nM | 74% |  |  |  |
| COc1cc(N2CCN(C)CC2)ccc1Nc1ncc2c(n1)N(C)c1ccccc1C(=O)N2 |  |  | 113 nM | 38 nM |  |
